Assay [1] relates to Hepatocyte growth factor receptor (Homo sapiens), P08581 [M1250T]. Particulars: at 10 µM.
The target in assay [2] is T1, NUAK family SNF1-like kinase 2 (Homo sapiens) (UniProt Q9H093).
T1 sequence (whole entry): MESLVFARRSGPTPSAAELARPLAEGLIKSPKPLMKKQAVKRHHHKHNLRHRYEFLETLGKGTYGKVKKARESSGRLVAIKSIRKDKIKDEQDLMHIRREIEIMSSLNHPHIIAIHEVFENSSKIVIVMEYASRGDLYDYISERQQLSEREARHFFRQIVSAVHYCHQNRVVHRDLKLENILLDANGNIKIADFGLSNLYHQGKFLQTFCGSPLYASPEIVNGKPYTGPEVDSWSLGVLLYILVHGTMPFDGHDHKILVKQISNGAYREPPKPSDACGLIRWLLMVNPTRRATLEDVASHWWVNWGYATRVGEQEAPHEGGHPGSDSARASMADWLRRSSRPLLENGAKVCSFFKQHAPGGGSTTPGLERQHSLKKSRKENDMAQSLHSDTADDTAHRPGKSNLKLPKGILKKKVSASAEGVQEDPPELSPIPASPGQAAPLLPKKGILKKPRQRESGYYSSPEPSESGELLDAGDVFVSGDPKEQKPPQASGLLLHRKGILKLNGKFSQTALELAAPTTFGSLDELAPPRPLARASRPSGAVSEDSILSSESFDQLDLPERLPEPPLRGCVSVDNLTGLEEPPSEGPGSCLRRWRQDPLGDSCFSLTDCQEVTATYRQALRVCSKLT
Particulars: at 10 µM.

Assay [3] has as its system Leucine-rich repeat serine/threonine-protein kinase 2 (Homo sapiens), Q5S007 [G2019S]. Description: (§1) Selectivity interaction (KinomeScan (DiscoverX)) EUB0000092b LRRK2. Conditions: at 10 µM.
In assay [4] the target is Leucine-rich repeat serine/threonine-protein kinase 2 (Homo sapiens, UniProt Q5S007). The assay is described as §1. Particulars: at 10 µM.
Assay [5] deals with Ribosomal protein S6 kinase alpha-4 (Homo sapiens) (UniProt O75676). Put plainly: Selectivity interaction (KinomeScan (DiscoverX)) EUB0001049a RPS6KA4. Conditions: at 1 µM.
The target of assay [6] is Dual specificity protein kinase CLK3 (Homo sapiens, UniProt P49761).
The target of assay [7] is Protein arginine N-methyltransferase 5 (Homo sapiens, UniProt O14744). Description: Selectivity interaction (Methyltransferase screen (radiometric assays, panel of 8 PRMTs, 21 protein lysine methyltransferases, 3 DNA methyltransferases, and one RNA methyltransferase)) EUB0000271b PRMT5.
For assay [8], the target named is T2, Serine/threonine-protein kinase Sgk1 (Homo sapiens) (UniProt O00141).
T2 sequence (whole entry): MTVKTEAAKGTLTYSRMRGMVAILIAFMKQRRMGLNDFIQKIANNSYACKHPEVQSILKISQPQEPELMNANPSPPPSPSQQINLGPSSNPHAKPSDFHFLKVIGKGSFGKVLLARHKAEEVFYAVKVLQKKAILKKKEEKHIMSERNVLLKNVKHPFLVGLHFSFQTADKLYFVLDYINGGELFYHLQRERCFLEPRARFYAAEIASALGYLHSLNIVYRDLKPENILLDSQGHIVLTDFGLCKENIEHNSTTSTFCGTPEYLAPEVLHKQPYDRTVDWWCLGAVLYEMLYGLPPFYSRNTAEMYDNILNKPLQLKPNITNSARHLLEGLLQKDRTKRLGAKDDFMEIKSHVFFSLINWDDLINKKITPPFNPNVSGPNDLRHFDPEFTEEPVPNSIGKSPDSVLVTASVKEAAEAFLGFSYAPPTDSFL
Description: Selectivity interaction (Kinase panel (Z-LYTE Assay)) EUB0001632a SGK1. Particulars: at 10 µM.

Assay [9] addresses Ribosomal protein S6 kinase alpha-1 (Homo sapiens, UniProt Q15418). Put plainly: Selectivity interaction (SelectScreen profiling (Invitrogen)) EUB0000607a RPS6KA1. Conditions: at 2 µM.
Assay [10] addresses Phosphatidylinositol 4-kinase beta (Homo sapiens, UniProt Q9UBF8). Description: Selectivity interaction (KinomeScan (DiscoverX)) EUB0000607a PI4KB. Conditions: at 10 µM.
Assay [11] deals with Serine/threonine-protein kinase N1 (Homo sapiens, UniProt Q16512). Put plainly: Selectivity interaction (Kinase panel (Invitrogen)) EUB0000639a PKN1. Particulars: at 200 nM.
Assay [12] has as its target T3, Serine/threonine-protein kinase LATS2 (Homo sapiens) (UniProt Q9NRM7).
T3 sequence (whole entry): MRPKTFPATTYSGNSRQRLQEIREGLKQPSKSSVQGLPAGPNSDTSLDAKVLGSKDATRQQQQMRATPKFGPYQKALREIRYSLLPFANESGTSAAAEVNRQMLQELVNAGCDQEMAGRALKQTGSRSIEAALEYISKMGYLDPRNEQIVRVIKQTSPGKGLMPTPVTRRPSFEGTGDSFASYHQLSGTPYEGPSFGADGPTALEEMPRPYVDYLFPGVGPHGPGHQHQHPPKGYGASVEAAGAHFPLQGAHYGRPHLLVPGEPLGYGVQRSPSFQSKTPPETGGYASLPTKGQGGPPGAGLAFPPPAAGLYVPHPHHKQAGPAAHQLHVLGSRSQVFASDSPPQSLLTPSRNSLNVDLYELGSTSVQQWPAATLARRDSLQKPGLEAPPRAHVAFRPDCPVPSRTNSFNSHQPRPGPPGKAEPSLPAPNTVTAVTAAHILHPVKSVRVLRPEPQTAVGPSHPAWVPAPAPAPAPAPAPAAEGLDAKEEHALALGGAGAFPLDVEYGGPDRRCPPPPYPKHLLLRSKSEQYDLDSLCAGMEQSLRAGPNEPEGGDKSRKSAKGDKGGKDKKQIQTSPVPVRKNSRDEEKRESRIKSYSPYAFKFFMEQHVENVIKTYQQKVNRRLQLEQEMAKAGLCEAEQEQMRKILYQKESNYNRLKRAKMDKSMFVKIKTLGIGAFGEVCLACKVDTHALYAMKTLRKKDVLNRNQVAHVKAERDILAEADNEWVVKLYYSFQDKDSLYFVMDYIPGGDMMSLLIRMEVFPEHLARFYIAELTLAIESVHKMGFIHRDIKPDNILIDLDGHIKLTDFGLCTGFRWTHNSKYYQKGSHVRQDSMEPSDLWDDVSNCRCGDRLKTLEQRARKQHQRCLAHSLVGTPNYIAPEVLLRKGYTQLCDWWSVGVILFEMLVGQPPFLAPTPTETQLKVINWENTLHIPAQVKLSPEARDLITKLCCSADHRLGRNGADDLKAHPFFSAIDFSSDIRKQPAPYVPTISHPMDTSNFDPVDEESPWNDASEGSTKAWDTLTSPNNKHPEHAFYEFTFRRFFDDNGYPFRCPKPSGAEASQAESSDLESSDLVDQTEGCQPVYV
Conditions: at 10 µM.

Chain of Protein arginine N-methyltransferase 5 (O14744 whole entry): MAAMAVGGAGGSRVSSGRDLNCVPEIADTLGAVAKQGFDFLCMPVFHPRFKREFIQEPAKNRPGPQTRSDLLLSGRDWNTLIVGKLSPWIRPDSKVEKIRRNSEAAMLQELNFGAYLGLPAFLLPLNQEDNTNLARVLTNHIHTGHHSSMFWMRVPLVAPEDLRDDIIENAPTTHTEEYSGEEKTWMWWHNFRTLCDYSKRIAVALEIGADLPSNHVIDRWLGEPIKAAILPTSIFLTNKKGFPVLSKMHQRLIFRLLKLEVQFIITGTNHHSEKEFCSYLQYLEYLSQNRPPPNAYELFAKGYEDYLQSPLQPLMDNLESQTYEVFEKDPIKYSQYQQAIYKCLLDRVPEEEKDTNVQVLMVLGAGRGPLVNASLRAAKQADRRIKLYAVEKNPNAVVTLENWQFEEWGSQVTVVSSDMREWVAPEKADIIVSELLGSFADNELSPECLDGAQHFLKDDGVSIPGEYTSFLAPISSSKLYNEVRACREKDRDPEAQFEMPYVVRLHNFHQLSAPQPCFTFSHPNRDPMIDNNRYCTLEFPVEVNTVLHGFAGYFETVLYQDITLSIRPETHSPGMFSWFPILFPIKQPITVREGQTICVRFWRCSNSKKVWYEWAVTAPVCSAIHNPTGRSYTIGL
Chain of Ribosomal protein S6 kinase alpha-1 (Q15418 whole entry): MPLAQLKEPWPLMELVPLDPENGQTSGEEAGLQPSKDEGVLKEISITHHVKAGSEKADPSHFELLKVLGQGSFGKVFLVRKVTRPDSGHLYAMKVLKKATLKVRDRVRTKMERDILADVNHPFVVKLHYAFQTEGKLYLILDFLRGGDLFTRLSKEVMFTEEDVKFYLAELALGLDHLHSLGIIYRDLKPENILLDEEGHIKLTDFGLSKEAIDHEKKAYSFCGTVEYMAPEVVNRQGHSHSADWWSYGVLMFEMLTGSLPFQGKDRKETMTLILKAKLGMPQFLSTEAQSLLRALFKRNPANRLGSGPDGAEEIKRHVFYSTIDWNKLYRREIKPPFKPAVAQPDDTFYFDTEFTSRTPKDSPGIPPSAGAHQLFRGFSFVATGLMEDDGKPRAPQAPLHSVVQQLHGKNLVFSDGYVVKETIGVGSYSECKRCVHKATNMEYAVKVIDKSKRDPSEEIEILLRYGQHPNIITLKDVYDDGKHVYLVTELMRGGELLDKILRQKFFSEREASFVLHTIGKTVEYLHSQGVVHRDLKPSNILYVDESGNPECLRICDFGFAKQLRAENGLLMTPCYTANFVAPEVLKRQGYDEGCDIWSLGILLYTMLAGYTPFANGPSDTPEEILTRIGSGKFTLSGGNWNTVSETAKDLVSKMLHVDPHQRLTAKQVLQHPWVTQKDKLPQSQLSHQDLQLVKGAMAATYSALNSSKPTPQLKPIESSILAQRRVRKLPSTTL
Chain of Serine/threonine-protein kinase N1 (Q16512 2-942 limits assumed): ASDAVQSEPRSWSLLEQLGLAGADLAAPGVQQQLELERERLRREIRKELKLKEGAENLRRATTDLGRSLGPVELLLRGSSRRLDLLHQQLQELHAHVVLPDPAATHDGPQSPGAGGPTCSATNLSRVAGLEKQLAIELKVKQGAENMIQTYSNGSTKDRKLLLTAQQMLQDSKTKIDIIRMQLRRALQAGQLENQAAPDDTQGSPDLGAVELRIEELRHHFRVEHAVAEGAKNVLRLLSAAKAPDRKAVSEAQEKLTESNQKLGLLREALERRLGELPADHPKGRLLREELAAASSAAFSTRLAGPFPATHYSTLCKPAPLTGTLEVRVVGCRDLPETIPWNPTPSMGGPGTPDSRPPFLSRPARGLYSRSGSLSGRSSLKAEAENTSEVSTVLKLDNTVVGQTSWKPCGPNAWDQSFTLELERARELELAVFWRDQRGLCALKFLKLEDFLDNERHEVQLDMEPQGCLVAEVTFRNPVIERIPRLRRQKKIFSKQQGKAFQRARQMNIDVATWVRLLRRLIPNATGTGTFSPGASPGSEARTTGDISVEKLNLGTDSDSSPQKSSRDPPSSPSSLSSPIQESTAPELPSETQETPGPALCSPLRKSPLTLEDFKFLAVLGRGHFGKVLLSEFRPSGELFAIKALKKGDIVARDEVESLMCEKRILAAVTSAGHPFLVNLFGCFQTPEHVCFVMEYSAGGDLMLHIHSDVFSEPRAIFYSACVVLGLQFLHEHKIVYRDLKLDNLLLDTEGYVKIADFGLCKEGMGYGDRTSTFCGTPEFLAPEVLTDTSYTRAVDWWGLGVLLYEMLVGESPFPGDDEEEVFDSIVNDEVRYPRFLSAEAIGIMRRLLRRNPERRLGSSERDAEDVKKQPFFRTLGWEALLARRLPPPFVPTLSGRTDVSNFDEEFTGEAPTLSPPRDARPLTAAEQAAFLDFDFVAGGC
Chain of Hepatocyte growth factor receptor (Homo sapiens), P08581 [M1250T] (P08581 whole entry M1250T): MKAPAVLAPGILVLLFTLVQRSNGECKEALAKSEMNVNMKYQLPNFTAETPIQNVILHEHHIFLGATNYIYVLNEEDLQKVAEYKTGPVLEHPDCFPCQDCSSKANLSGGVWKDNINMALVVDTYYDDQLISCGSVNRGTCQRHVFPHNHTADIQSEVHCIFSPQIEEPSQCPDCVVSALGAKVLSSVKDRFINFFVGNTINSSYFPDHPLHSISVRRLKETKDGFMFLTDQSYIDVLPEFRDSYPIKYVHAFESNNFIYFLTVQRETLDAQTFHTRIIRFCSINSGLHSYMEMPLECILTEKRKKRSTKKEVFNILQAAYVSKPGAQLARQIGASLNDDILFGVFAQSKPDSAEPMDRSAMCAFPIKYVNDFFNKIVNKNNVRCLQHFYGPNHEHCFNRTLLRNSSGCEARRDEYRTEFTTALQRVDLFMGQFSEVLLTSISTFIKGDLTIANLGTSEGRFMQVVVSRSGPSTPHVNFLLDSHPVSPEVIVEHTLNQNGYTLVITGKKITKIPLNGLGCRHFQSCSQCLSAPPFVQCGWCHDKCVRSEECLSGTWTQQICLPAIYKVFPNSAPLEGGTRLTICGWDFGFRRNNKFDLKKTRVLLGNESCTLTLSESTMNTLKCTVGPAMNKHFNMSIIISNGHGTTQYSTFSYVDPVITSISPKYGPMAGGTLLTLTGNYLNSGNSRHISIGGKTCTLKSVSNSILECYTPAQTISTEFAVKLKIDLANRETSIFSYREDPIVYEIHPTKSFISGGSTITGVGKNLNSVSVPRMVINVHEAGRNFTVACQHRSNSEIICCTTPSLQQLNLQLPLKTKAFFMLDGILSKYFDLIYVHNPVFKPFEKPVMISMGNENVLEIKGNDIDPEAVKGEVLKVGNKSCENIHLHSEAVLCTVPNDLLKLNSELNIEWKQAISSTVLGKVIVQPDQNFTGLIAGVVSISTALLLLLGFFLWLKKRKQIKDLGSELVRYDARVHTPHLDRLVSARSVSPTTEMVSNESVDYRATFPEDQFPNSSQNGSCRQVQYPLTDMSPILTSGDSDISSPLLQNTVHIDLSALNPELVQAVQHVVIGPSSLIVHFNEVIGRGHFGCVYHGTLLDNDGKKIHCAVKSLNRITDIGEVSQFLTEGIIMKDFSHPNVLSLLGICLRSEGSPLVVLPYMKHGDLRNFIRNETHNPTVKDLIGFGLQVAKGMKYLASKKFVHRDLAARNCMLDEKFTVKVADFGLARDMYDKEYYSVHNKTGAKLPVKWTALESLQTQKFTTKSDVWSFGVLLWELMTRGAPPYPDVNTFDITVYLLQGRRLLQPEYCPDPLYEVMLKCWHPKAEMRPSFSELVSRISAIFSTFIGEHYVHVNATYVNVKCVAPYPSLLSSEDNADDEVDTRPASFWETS
Chain of Phosphatidylinositol 4-kinase beta (Q9UBF8 2-816 limits assumed): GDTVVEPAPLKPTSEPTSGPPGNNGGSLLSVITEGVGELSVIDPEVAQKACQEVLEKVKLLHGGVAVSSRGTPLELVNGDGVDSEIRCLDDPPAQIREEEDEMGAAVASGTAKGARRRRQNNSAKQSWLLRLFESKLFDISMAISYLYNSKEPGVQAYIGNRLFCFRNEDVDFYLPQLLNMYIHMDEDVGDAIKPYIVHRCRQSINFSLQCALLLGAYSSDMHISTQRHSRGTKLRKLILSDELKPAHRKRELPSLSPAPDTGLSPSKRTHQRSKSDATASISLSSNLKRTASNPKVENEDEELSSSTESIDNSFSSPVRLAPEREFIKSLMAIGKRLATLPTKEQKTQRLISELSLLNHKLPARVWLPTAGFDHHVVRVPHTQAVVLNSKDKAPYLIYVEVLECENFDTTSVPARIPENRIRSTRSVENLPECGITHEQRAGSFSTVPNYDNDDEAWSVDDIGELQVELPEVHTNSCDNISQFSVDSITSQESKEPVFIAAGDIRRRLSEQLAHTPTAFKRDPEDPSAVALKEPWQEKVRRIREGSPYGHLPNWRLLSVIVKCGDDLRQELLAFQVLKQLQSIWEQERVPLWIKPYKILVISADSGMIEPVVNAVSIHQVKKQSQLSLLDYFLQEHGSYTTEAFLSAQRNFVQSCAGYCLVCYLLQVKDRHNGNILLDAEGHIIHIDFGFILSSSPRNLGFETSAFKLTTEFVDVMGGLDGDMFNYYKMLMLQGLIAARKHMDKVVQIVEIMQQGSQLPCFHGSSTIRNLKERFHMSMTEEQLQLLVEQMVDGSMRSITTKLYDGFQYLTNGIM
Chain of Dual specificity protein kinase CLK3 (P49761 whole entry, looked up): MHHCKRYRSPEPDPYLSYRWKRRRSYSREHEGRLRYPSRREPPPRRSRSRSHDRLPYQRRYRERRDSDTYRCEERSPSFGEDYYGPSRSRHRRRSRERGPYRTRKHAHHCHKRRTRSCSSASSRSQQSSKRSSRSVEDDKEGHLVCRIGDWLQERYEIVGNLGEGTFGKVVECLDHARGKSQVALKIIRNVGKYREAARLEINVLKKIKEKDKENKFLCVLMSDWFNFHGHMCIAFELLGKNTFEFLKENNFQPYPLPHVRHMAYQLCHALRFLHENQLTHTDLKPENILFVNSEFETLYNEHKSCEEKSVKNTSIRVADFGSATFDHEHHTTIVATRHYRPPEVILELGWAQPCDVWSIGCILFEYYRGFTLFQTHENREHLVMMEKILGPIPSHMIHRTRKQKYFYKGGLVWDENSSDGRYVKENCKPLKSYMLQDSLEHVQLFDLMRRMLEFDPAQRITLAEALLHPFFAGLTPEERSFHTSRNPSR

`Cc1cc([C@@H](C)Nc2ccccc2C(=O)O)c2nc(N3CCOCC3)cc(=O)n2c1` [AZD-6482] had a % of control in assay [1] of 87%.
In turn, `CCN(CC)CCCCNc1ncc2cc(-c3cc(OC)cc(OC)c3)c(NC(=O)NC(C)(C)C)nc2n1` registered a % of control in assay [2] of 100%.
For the molecule `CCC(=O)N1CCN(c2ccc(-n3c(=O)ccc4cnc5ccc(-c6cnc7ccccc7c6)cc5c43)cc2C(F)(F)F)CC1`, the % of control came out at 99% in assay [3] and 81% in assay [4].
For `COc1cc(Nc2nc(C)cc(-c3cnn4nc(OC)ccc34)n2)cc(C(F)(F)F)c1`, in assay [5], the % of control was 84%.
With `Cc1cnc(Nc2ccc(F)cc2Cl)nc1-c1c[nH]c(C(=O)N[C@H](CO)c2cccc(Cl)c2)c1`, the % of inhibition in [6] was found to be 9%.
As for `Cc1cc(C)cc([C@@H]2c3cc(C)ccc3NC(=O)CN2C(=O)c2ccc(Br)s2)c1`, the figures for the % of activity in assay [7] (at 1 µM) and in [7] (at 10 µM) were 102% and 100%, respectively.
Consider `Cn1cc(-n2cnc3c(NCc4nc5cc(Cl)c(Cl)cc5[nH]4)nc(N4CCOCC4)nc32)cn1`, for which the % of control in [8] came to 28%.
In [9], `CNC(=O)Nc1ccc(-c2nc(N3CC4CCC(C3)O4)c3cnn(C4CCC5(CC4)OCCO5)c3n2)cc1` had a % of inhibition of 4%. In addition, the % of control in assay [10] is 100%.
`CC[C@@H]1[C@H](F)C(=O)N[C@@H]1COc1nccc2cc(C(N)=O)c(OC)cc12` [ZIMLOVISERTIB] displayed a % of inhibition in assay [11] of 8.54%.
`COCC(=O)NC/C=C/c1ccc2ncnc(Nc3ccc(Oc4ccc(C)nc4)c(C)c3)c2c1` [CP-724714]: the % of control in assay [12] came to 100%.

Values taken from ChEMBL document CHEMBL5465560, “Selectivity Literature for EUbOPEN Chemogenomic Library” (2024).
